Results published in PubChem BioAssay (NCI).
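Dose response: 5 concentrations. Exposure: 48 h. Format: 96-well plates. Endpoint: linear interpolation; highest concentration if not reached. GI50: concentration for 50% inhibition of growth. At the TGI there is no net growth.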

How the values were obtained:
Test in all cases: NCI tumour cell line growth inhibition, 48 h
[1] = system: CAKI-1 renal
[2] = system: SK-MEL-2 melanoma
[3] = system: SF-295 CNS
[4] = system: NCI-H23 lung
[5] = system: HOP-62 NSCLC
[6] = system: RPMI-8226 leukemia

| Structure (SMILES) | TGI [1] [µM] | TGI [2] [µM] | TGI [3] [µM] | TGI [4] [µM] | TGI [5] [µM] | TGI [6] [µM] | GI50 [1] [µM] | GI50 [4] [µM] | GI50 [6] [µM] |
| --- | --- | --- | --- | --- | --- | --- | --- | --- | --- |
| CC12C3C4C1C1C2C3C41CO (configuration not stated) | > 100 | > 100 | > 100 | – | – | – | – | – | – |
| CSC1(C)C(=O)Nc2c(OCc3ccccc3)cc([N+](=O)[O-])cc21 (configuration not stated) | > 100 | > 100 | > 100 | > 100 | > 100 | > 100 | – | – | – |
| CN(CC(=O)O)c1ncc2c(n1)C=CCC2 | > 100 | > 100 | > 100 | > 100 | > 100 | > 100 | – | – | – |
| O=C1CSC(c2c[nH]c3ccccc23)N1c1ccc(Cl)cc1 (configuration not stated) | – | > 100 | > 100 | > 100 | > 100 | > 100 | – | – | – |
| CC1(c2sccc2Cl)CC(c2sccc2Cl)=C(C#N)C(=C(C#N)C#N)N1 (configuration not stated) | 36.1 | 39.3 | 35.2 | 35.9 | 37.3 | 88 | – | – | – |
| COc1cc(C)c(/C=C2/N=C(c3ccccc3)OC2=O)c([N+](=O)[O-])c1OC | > 100 | > 100 | > 100 | > 100 | > 100 | > 100 | – | – | – |
| COc1cc2c(c(OC)c1OC)C(=O)[C@@H]1[C@H]2N1C(=O)NCCCl | > 100 | > 100 | > 100 | > 100 | > 100 | > 100 | – | – | – |
| COc1ccc(/C(C)=N/NC(=O)c2ccncc2)c(OC)c1 | > 10 | – | – | > 10 | > 10 | > 10 | – | – | – |
| COc1ccc(/C=C/C(=O)/C=C/c2ccc(OC)cc2OC)c(OC)c1 | 23.4 | 13.1 | 72.5 | 43 | 81.1 | 18.6 | – | – | – |
| CC(=O)c1[nH]c(NC(C)C)c(C(=S)Nc2ccccc2)c1N | > 100 | 33 | > 100 | > 100 | > 100 | 27.9 | – | – | – |
| CN(C)c1ccc(/C=C/c2ccc(S(N)(=O)=O)cc2)cc1 | > 100 | > 100 | 46.8 | 44 | 36.6 | > 100 | 50.3 | 14.2 | 11.6 |
| CC(O)C1(CNc2cc(Cl)nc(N)n2)CCCCC1 (configuration not stated) | > 100 | > 100 | > 100 | > 100 | > 100 | > 100 | – | – | – |
| CCOC(=O)/C=C(\C(=O)OCC)n1ccc(=O)n(Cc2cnnn2CCCCOC(C)=O)c1=O | 6.8 | 36.3 | > 59.8 | 18.5 | 41.9 | > 22.5 | – | – | – |
| COc1cc(CSc2ccc(O)cc2)cc(OC)c1OC | > 100 | 67 | 95 | > 100 | > 100 | 66.1 | – | – | – |
| CSC1NC(c2ccccc2)=C(C#N)C(=O)N1C1OCC(OC(C)=O)C(OC(C)=O)C1OC(C)=O (configuration not stated) | > 100 | – | > 100 | > 100 | > 100 | > 100 | – | – | – |
| S=C(NCCc1ccccn1)N/N=C/c1ccccn1 | < 0.01 | 9.9 | > 100 | – | 0.0696 | 0.186 | – | – | – |
| Clc1cc2nn(C3CCCCO3)nc2cc1Cl (configuration not stated) | > 100 | > 100 | > 100 | > 100 | > 100 | – | – | – | – |
| CC1(C)[C@@H]2C[C@H]1[C@@H](Cc1cccc(C[C@H]3c4cc(-c5ccccn5)ncc4[C@H]4C[C@@H]3C4(C)C)c1)c1cc(-c3ccccn3)ncc12 | 17 | > 100 | > 100 | > 77.4 | > 100 | > 26.4 | – | – | – |
| COC(=O)C1CCC(=O)N1C(c1cc(OC)c(OC)c(OC)c1)c1cc(OC)c(OC)c(OC)c1 (configuration not stated) | – | > 100 | > 100 | – | > 100 | > 100 | – | – | – |
| CCOC(=O)NN(C(=O)OCC)C(C(=O)C1=CCCCC1)N(NC(=O)OCC)C(=O)OCC | > 100 | > 100 | > 100 | > 100 | > 100 | > 100 | – | – | – |
| COc1ccccc1Cc1ccc(C2C=CC3(CC(=O)C=C3C)C(=O)C2)o1 (configuration not stated) | > 100 | 30.8 | 65.9 | 58.3 | 50.3 | 39.2 | – | – | – |
| O=C(CN(C(=O)OC12CC3CC(CC(C3)C1)C2)C(=O)OC12CC3CC(CC(C3)C1)C2)Oc1ccc([N+](=O)[O-])cc1 | > 100 | – | > 100 | > 100 | > 100 | – | – | – | – |
| COC(=O)c1c(C(=O)OC)c2ccccn2c1-c1cc(OC)c(Br)c(=O)o1 | – | > 100 | > 100 | > 100 | > 100 | > 100 | – | – | – |
